Results from patent publication US5420138A, “Bicyclic pyridines which are angiotensin II inhibitors” (Roussel-UCLAF, priority 1992, dated 1995).

Key:
angiotensin II receptor = target: T1, angiotensin II receptor (Rattus norvegicus, UniProt P25095); assay: Test on the angiotensin II receptor (displacement of 125I angiotensin II, fresh rat liver membrane preparation); type: binding; details: rat liver membranes, 25° C., 150 minutes, read-out: IC50 (50% inhibiting concentration, displacement of 125I angiotensin II)
T1 construct: A fresh membrane preparation obtained from the liver of a rat was used; from tissue; host or cells: rat liver, fresh membrane preparation
T1 sequence (P25095 1-359): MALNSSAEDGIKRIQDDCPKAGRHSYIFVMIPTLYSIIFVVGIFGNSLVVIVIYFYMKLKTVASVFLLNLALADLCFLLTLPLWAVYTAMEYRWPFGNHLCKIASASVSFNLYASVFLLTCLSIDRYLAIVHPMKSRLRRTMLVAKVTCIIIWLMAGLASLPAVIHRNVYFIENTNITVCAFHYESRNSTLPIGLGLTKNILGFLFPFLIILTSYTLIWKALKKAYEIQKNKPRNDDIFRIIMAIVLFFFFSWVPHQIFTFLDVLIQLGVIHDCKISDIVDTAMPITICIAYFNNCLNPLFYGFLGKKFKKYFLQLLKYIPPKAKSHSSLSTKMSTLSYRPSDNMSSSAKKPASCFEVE
Procedure: A fresh membrane preparation obtained from the liver of a rat was used. The tissue was ground in a polytron in a Tris 50 mM pH 7.4 buffer and the grinding is followed by 3 centrifugings at 30,000 g for 15 minutes with intermediate taking up of the pellets in the Tris pH 7.4 buffer.
The last pellets were suspended in an incubation buffer (Tris 20 mM, NaCl 135 mM, KCl 10 mM, glucose 5 mM, MgCl2 10 mM, PMSF 0.3 mM, bacitracin 0.1 mM, BSA 0.2%).
2 ml aliquot fractions were distributed in hemolysis tubes and ^125 I angiotensin II (25,000 DPM/tube) and the product to be studied were added. The product was first tested with 3×10^-5 M in triplicate. When the tested product displaced more than 50% of the radioactivity bound specifically to the receptor, it was tested again according to a range of 7 concentrations to determine the concentration which inhibited by 50% the radioactivity bound specifically to the receptor. In this way, the 50% inhibiting concentration was determined.
The non-specific bond was determined by the addition of the product of Example 94 of the European Patent 0253310, at 10^-5 M (in triplicate).The product was incubated at 25° C. for 150 minutes, put in a water-bath at 0° C. for 5 minutes, filtered under vacuum, rinsed with Tris pH 7.4 buffer and the radioactivity was counted in the presence of scintillating Triton. […]

angiotensin II [1] = assay: Test for antagonistic activity of angiotensin II in a demedullated rat (intravenous); type: in vivo, Male Sprague-Dawley rats; details: injected via right jugular vein 5 minutes before angiotensin II (0.75 micrograms/kg), diastolic arterial pressure, read-out: ID50 (dose inhibiting the effects on pressure of angiotensin II by 50%)
Procedure: Male Sprague-Dawley rats (250 to 350 g) were anaesthetized by an intra-peritoneal injection of sodium pentobarbital (60 mg/kg). The diastolic arterial pressure was recorded using a heparinated catheter (PE50) introduced into the left carotid artery of the animal, and connected to a pressure processor (Gould, Pressure Processor) by means of a Gould pressure sensor.
A catheter was introduced into the right jugular vein of the animal to permit the injection of the molecules to be studied.
The animal was placed under assisted respiration. A bilateral section of the pneumogastric nerve is carried out. The rat is then demedullated.
After a sufficient period of stabilization, the study of the antagonism of the molecules vis-a-vis angiotensin II (Hypertensin, CIBA) was carried out in the following way:
1--Three consecutive injections of angiotensin II (0.75 micrograms/kg) at 15 minute intervals enabled a reproducible and stable pressure response to be obtained.
2--While keeping an administration frequency of 15 minutes of the angiotensin II, the molecules (0.01 to 10 mg/kg) were injected 5 minutes before the angiotensin II.
The effects on pressure of angiotensin II in the presence of the antagonist were expressed as a percentage of the effects on pressure of angiotensin II administered on its own. The dose inhibiting the studied effect by 50% was determined in this way (ID50). […]

angiotensin II [2] = assay: Test of the antagonistic activity of angiotensin II by oral route in a demedullated rat; type: in vivo, Male Sprague Dawley rats; details: oral (force-feeding), angiotensin II 0.75 ug/kg 60 and 75 minutes after force-feeding, read-out: ID50 (dose inhibiting the effects on pressure of angiotensin II by 50%), oral route
Procedure: Male Sprague Dawley rats of equal weight (300-330 g) were selected. The animals were divided into several groups (n ≥6 per group), receiving either the solvent (control group) or the antagonistic molecule of angiotensin II. The doses administered were determined from the ID50 IV. The solvent used. was methyl cellulose (5 ml/kg).
45 minutes after force-feeding, the animals were anaesthetized with sodium pentobarbital (60 mg/kg, IP). The diastolic arterial pressure was recorded using a heparinated catheter (PE50) introduced into the left carotid artery of the animal, and connected by means of a pressure sensor (Gould, P10 EZ) to a pressure processor (Gould, Pressure Processor). The rat was put under assisted respiration, then demedullated and bilaterally vagotomized.
Two injections of angiotensin II (0.75 ug/kg; Hypertensin, Ciba) were given via the pudendal vein, 60 and 75 minutes respectively after the force-feeding of the animals.
The effects on pressure of angiotensin II in the presence of the antagonist were expressed as a percentage of the effects on pressure of angiotensin II administered to the control group.
For each product, the dose inhibiting the studied effect by 50% (ID50) was thus determined.

| SMILES | IC50 (angiotensin II receptor) [nM] | ED50 (angiotensin II [1]) [mg/kg] | ED50 (angiotensin II [2]) [mg/kg] |
| --- | --- | --- | --- |
| CCCCc1nn2cccc(C(=O)O)c2c1Cc1ccc(-c2ccccc2-c2nnn[nH]2)cc1 [Example 21, 2-butyl 3-[(2'-(1H-tetrazol-5-yl) (1,1'-biphenyl) 4-yl)methyl]pyrazolo(1,5-a)pyridin 4-carboxylic acid] | 0.5 | 0.3 | 2.35 |
| CCCCc1nn2c(C)cccc2c1Cc1ccc(-c2ccccc2-c2nn[nH]n2)cc1 [Example 32, 2-butyl 7-methyl 3-[[2'-(1H-tetrazol--S--yl) (1,1'-biphenyl) 4-yl]methyl]pyrazolo (1,5-a) pyridine] | 24 |  |  |
